Assay results: article PMC10997755, “Discovery of a small-molecule inhibitor that traps Polθ on DNA and synergizes with PARP inhibitors” (Nature Communications, 2024)
Where “and” joins values, the source holds several entries; their conditions need not be identical. Identical values can stand only once.

Columns and labels:
PolθΔcen:DNA/DNA complex = experiment: EcoRI endonuclease protection assay; assay type: biochemical; conditions: for i (%), normalized to 100%, ave(%) / i (%), replicates: 14 nt i; for i+1 (%) normalized to 100%, ave(%) / i+1 (%), replicates: 15 nt i+1;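 as to i (%), replicates: i is primer-template DNA within pre-catalytic complexes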;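 as to i+1 (%), replicates: i+1 is one-nucleotide extended DNA within post-catalytic complexes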
Protocol: (§1) EcoRI and KpnI endonucleases assay: 25 nM 5’-^32P radiolabeled primer-template DNA Sc15-EcoRI (5’-^32P LM3-EcoRI/LM4-EcoRI) or Sc19-KpnI (5’-^32P LM11-Kpn/LM12-Kpn) in reaction buffer (25 mM Tris-HCl pH 7.5, 10 mM MgCl2, 10% glycerol, 0.1 mg/mL BSA, 0,01% igepal, 1 mM DTT) were incubated in the presence or in the absence of 50 nM Polθ-pol, 100 μM ddCTP, and 10 μM inhibitors, as indicated, for 5 min at room temperature. Next, 0.08 U/μL EcoRI or KpnI together with 500 nM “trapping” DNA Sc14 (RP559/RP702) were added and incubated for further 0–40 min at 30 °C as indicated. 10 nM PolθΔcen and FL-Polθ and 25 nM Sc15-EcoRI and Sc19-Kpn were probed with 0.04 U/μL EcoRI or KpnI (both from New England Biolabs) using the same conditions. Reactions were stopped by addition of formamide loading buffer with 50 mM EDTA, resolved in denaturing 20% urea PAAG and analyzed using Typhoon PhosphorImager (GE Amersham). Quantification was done in ImageQuant TL software. All quantified experiments were performed in triplicates and plotted as mean with ± s.d using GraphPad Prism 9 software.

Fl-Polθ:DNA/DNA complex = biological target: T1, Fl-Polθ:DNA/DNA complex (Homo sapiens, UniProt O75417); experiment: EcoRI endonuclease protection assay; assay type: biochemical;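 as to i+1 (%) (15 nt), replicates #1-#3: i+1 is one-nucleotide extended DNA within post-catalytic complexes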
T1 construct: recombinant human full-length Polθ (Fl-Polθ); made in house
T1 sequence (O75417 whole entry, one chain of several): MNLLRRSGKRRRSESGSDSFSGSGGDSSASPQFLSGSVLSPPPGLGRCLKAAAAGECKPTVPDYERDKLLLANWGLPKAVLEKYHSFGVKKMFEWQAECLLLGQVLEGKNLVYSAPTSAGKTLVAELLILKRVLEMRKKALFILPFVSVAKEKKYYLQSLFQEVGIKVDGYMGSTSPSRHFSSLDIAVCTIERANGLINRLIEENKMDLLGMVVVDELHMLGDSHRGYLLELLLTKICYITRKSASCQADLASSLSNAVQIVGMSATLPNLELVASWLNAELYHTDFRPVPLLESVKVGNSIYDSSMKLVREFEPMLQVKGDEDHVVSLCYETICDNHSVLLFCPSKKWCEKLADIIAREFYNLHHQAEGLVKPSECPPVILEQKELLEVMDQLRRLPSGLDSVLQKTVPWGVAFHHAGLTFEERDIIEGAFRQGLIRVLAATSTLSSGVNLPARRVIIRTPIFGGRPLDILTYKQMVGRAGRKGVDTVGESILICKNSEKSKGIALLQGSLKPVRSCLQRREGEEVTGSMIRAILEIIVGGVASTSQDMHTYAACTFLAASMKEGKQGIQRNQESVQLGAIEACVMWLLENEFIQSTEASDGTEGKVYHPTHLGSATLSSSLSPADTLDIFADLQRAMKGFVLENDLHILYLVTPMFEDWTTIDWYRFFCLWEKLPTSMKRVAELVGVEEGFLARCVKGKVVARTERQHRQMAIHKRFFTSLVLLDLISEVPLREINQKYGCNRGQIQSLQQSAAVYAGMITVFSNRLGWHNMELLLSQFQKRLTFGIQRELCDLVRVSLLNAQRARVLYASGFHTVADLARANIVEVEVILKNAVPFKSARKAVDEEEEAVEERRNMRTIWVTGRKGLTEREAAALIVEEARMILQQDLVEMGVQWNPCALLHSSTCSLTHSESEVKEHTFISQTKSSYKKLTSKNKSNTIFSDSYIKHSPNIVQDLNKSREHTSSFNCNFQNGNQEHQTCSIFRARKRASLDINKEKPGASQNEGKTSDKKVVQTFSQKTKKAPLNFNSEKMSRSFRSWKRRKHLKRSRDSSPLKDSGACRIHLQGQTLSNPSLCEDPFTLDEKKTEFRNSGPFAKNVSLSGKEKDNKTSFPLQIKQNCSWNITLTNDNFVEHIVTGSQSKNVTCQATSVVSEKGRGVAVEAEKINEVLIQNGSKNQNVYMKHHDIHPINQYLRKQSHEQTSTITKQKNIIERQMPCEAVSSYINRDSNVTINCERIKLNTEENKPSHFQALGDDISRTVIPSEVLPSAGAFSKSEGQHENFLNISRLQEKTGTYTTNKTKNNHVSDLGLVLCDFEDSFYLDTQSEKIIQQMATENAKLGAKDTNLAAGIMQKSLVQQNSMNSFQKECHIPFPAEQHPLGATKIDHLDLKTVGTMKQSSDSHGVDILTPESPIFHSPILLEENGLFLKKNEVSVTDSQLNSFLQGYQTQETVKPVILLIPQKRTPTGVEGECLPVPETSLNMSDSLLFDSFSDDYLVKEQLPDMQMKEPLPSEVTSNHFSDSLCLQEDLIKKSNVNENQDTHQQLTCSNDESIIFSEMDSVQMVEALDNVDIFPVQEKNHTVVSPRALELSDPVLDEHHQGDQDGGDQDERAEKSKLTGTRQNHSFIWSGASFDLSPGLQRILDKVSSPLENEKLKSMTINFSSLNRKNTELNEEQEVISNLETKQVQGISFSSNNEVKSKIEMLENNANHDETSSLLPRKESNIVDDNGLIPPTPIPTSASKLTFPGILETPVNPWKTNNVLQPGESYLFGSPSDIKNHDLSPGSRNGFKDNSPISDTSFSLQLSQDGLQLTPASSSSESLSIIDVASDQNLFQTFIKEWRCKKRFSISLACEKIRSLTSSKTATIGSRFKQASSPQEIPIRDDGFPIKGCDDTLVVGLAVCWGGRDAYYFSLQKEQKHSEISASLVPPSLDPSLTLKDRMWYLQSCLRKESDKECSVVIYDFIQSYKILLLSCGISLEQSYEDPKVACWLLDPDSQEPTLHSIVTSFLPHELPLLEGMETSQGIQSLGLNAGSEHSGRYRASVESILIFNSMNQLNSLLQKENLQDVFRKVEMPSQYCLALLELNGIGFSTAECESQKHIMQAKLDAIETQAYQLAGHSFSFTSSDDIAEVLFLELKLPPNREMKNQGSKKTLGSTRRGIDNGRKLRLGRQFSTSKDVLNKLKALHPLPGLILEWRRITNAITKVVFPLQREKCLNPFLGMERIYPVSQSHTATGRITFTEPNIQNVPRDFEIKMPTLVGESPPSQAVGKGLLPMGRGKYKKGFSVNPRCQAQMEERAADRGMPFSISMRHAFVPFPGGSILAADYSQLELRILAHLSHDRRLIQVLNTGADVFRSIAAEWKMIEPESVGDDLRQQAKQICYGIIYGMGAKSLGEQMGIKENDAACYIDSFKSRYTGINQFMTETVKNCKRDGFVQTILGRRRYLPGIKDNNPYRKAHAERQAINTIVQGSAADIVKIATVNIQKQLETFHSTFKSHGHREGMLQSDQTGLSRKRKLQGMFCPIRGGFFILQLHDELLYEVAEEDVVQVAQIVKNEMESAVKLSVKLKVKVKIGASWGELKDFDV
Protocol: as §1

[1] = Colony survival, ola with or without RTX-161 (source data sheet Fig. 2 b; cell line not given); assay type: cell-based
[2] = Eco+PolqDcen+ddC+RTx152, 2.5min

CN1CCN(c2cc(C(F)(F)F)cc(C(F)(F)F)c2OC(=O)N(C)c2ccc(F)cc2)C1=O [RTx-152]
EcoRI cleavage %, ave (PolθΔcen:DNA/DNA complex; [2]): 9.7% | EcoRI cleavage %, replicates (PolθΔcen:DNA/DNA complex; [2]): 11.0% and 8.0% and 10.0% | EcoRI cleavage %, ave (PolθΔcen:DNA/DNA complex; Eco+PolqDcen+ddC+RTx152, 5min): 14.0% | EcoRI cleavage %, replicates (PolθΔcen:DNA/DNA complex; Eco+PolqDcen+ddC+RTx152, 5min): 17.0% and 12.0% and 13.0% | EcoRI cleavage %, ave (PolθΔcen:DNA/DNA complex; Eco+PolqDcen+ddC+RTx152, 10min): 16.7% | EcoRI cleavage %, replicates (PolθΔcen:DNA/DNA complex; Eco+PolqDcen+ddC+RTx152, 10min): 21.0% and 14.0% and 15.0% | i (%), normalized to 100%, ave(%) (PolθΔcen:DNA/DNA complex; PolqDcen+ddC+152, 2.5 min): 100.0% | i (%), replicates (PolθΔcen:DNA/DNA complex; PolqDcen+ddC+152, 2.5 min): 50.3% and 44.4% and 42.8% | i+1 (%) normalized to 100%, ave(%) (PolθΔcen:DNA/DNA complex; PolqDcen+ddC+152, 2.5 min): 100.0% | i+1 (%), replicates (PolθΔcen:DNA/DNA complex; PolqDcen+ddC+152, 2.5 min): 20.4% and 24.4% and 22.1% | i (%), normalized to 100%, ave(%) (PolθΔcen:DNA/DNA complex; PolqDcen+ddC+152, 5 min): 86.1% | i (%), replicates (PolθΔcen:DNA/DNA complex; PolqDcen+ddC+152, 5 min): 40.2% and 38.5% and 39.7% | i+1 (%) normalized to 100%, ave(%) (PolθΔcen:DNA/DNA complex; PolqDcen+ddC+152, 5 min): 111.1% | i+1 (%), replicates (PolθΔcen:DNA/DNA complex; PolqDcen+ddC+152, 5 min): 23.8% (2×) and 26.6% | i (%), normalized to 100%, ave(%) (PolθΔcen:DNA/DNA complex; PolqDcen+ddC+152, 10 min): 66.5% | i (%), replicates (PolθΔcen:DNA/DNA complex; PolqDcen+ddC+152, 10 min): 33.3% and 25.6% and 32.6% | i+1 (%) normalized to 100%, ave(%) (PolθΔcen:DNA/DNA complex; PolqDcen+ddC+152, 10 min): 137.8% | i+1 (%), replicates (PolθΔcen:DNA/DNA complex; PolqDcen+ddC+152, 10 min): 25.8% and 38.6% and 27.7% | EcoRI cleavage %, ave (Fl-Polθ:DNA/DNA complex; Eco+FL+ddC+RTx152, 2.5min): 15.4% | EcoRI cleavage %, replicates #1-#3 (Fl-Polθ:DNA/DNA complex; Eco+FL+ddC+RTx152, 2.5min): 16.1% and 15.5% and 14.7% | EcoRI cleavage %, ave (Fl-Polθ:DNA/DNA complex; Eco+FL+ddC+RTx152, 5min): 27.7% | EcoRI cleavage %, replicates #1-#3 (Fl-Polθ:DNA/DNA complex; Eco+FL+ddC+RTx152, 5min): 28.7% and 27.4% and 27.0% | EcoRI cleavage %, ave (Fl-Polθ:DNA/DNA complex; Eco+FL+ddC+RTx152, 10min): 38.7% | EcoRI cleavage %, replicates #1-#3 (Fl-Polθ:DNA/DNA complex; Eco+FL+ddC+RTx152, 10min): 39.6% and 39.0% and 37.5% | i (%) (14 nt), replicates #1-#3 (Fl-Polθ:DNA/DNA complex; FL+ddC+152, 2.5min): 45.9% and 45.3% and 45.1% | i (%), normalized to 100%, ave(%) (Fl-Polθ:DNA/DNA complex; FL+ddC+152, 2.5min): 100.0% | i+1 (%) (15 nt), replicates #1-#3 (Fl-Polθ:DNA/DNA complex; FL+ddC+152, 2.5min): 24.5% and 25.2% and 24.4% | i+1 (%) normalized to 100%, ave(%) (Fl-Polθ:DNA/DNA complex; FL+ddC+152, 2.5min): 100.0% | i (%) (14 nt), replicates #1-#3 (Fl-Polθ:DNA/DNA complex; FL+ddC+152, 5min): 32.7% and 32.3% and 32.8% | i (%), normalized to 100%, ave(%) (Fl-Polθ:DNA/DNA complex; FL+ddC+152, 5min): 71.7% | i+1 (%) (15 nt), replicates #1-#3 (Fl-Polθ:DNA/DNA complex; FL+ddC+152, 5min): 24.7% and 27.0% and 24.6% | i+1 (%) normalized to 100%, ave(%) (Fl-Polθ:DNA/DNA complex; FL+ddC+152, 5min): 103.0% | i (%) (14 nt), replicates #1-#3 (Fl-Polθ:DNA/DNA complex; FL+ddC+152, 10min): 19.6% and 20.0% and 17.7% | i (%), normalized to 100%, ave(%) (Fl-Polθ:DNA/DNA complex; FL+ddC+152, 10min): 42.0% | i+1 (%) (15 nt), replicates #1-#3 (Fl-Polθ:DNA/DNA complex; FL+ddC+152, 10min): 27.5% and 27.2% and 25.6% | i+1 (%) normalized to 100%, ave(%) (Fl-Polθ:DNA/DNA complex; FL+ddC+152, 10min): 108.3% | post-catalytic complexes (i + 1), EcoRI cleavage (Fl-Polθ:DNA/DNA complex; Fl-Polθ): fully resistant to EcoRI cleavage

CN(C(=O)Oc1c(N2CCN(CCO)C2=O)cc(C(F)(F)F)cc1C(F)(F)F)c1ccc(F)cc1 [RTx-161]
percent suvival ([1]; RTX-161 2.5 micro M + ola 11.8 nano M): 48.7273% | percent suvival ([1]; RTX-161 2.5 micro M + ola 26.60 nano M): 30.5455% | percent suvival ([1]; RTX-161 2.5 micro M + ola 60.00 nano M): 18.9091% | percent suvival ([1]; RTX-161 2.5 micro M, ola 0.00 nano M): 75.7576% and 82.5581% and 83.6364% | percent suvival ([1]; RTX-161 5 micro M + ola 11.8 nano M): 22.5455% | percent suvival ([1]; RTX-161 5 micro M + ola 26.60 nano M): 14.9091% | percent suvival ([1]; RTX-161 5 micro M + ola 60.00 nano M): 2.545% | percent suvival ([1]; RTX-161 5 micro M, ola 0.00 nano M): 46.9697% and 43.6047% and 70.9091% | percent suvival ([1]; RTX-161 10 micro M + ola 11.8 nano M): 9.818% | percent suvival ([1]; RTX-161 10 micro M + ola 26.60 nano M): 5.091% | percent suvival ([1]; RTX-161 10 micro M + ola 60.00 nano M): 0.7273% | percent suvival ([1]; RTX-161 10 micro M, ola 0.00 nano M): 24.2424% and 34.8837% and 47.6364%
